Test results reported in patent US8623859B2, “Bradykinin B1 antagonists” (Evotec AG, priority 2008, dated 2014).
Structures can show the parent of a compound that is named as a salt.

target: T1, human B1 (Homo sapiens, UniProt P46663); assay: Calcium flux assay for Bradykinin B1 antagonist, CHO-K1 cell line expressing human B1; type: cell-based; conditions: CHO-K1 cells expressing human B1, agonist Lys-(Des-Arg)-Bradykinin, read-out: Potency (IC50 value against human B1)
T1 construct: host or cells: CHO-K1
T1 sequence (P46663 1-353): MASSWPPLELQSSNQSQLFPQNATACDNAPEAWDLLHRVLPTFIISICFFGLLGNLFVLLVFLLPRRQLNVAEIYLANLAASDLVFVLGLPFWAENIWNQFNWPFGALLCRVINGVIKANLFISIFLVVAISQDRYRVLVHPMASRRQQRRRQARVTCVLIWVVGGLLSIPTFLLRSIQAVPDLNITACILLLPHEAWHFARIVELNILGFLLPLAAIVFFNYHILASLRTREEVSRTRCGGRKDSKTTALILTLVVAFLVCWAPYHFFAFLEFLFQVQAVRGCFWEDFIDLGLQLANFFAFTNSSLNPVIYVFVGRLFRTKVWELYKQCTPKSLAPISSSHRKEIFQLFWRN
Summary of the method: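 Inhibition of B1 agonist-evoked intracellular Ca2+ rise was followed by continuous fluorescence at 538 nm, with integrated, background-normalized signals plotted versus log compound concentration. Test compounds (eight 10-fold dilutions, triplicate, 1% DMSO final) were added 30 min at 25° C beforehand to Fluo-4AM-loaded human B1 CHO-K1 cells in pH 7.4 assay buffer.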

SMILES | IC50 [nM]
COc1cc(C)c(S(=O)(=O)N(C)Cc2cc(C(=O)N(C)Cc3ccc(CN4CC(O)C4)cc3)co2)c(C)c1 [Ex 128, N-{4-[(3-Hydroxyazetidin-1-yl)methyl]benzyl}-5-({[(4-methoxy-2,6-dimethylphenyl)sulfonyl](methyl)amino}methyl)-N-methylfuran-3-carboxamide] | 100 to 1000
COc1cc(C)c(S(=O)(=O)N(C)Cc2cc(C(=O)N(C)Cc3ccc(CN4CCC(OC)C4)cc3)co2)c(C)c1 (stereo not shown) [Ex 129, 5-({[(4-Methoxy-2,6-dimethylphenyl)sulfonyl](methyl)amino}methyl)-N-{4-[(3-methoxypyrrolidin-1-yl)methyl]benzyl}-N-methylfuran-3-carboxamide] | 100 to 1000
COc1cc(C)c(S(=O)(=O)N(C)Cc2cc(C(=O)N(C)Cc3ccc(CN4CCCC(OC)C4)cc3)co2)c(C)c1 (stereo not shown) [Ex 130, 5-({[(4-Methoxy-2,6-dimethylphenyl)sulfonyl](methyl)amino}methyl)-N-{4-[(3-methoxypiperidin-1-yl)methyl]benzyl}-N-methylfuran-3-carboxamide] | 100 to 1000
COc1cc(C)c(S(=O)(=O)N(C)Cc2cc(C(=O)N(C)Cc3ccc(CN4CCC(C(=O)N(C)C)C4)cc3)co2)c(C)c1 (stereo not shown) [Ex 131, 1-(4-{[{[5-({[(4-Methoxy-2,6-dimethylphenyl)sulfonyl](methyl)amino}methyl)furan-3-yl]carbonyl}(methyl)amino]methyl}benzyl)-N,N-dimethylpyrrolidine-3-carboxamide] | 100 to 1000
COc1cc(C)c(S(=O)(=O)N(C)Cc2cc(C(=O)N(C)Cc3ccc(CN4CCC(NC(C)=O)C4)cc3)co2)c(C)c1 (stereo not shown) [Ex 132, N-(4-{[3-(Acetylamino)pyrrolidin-1-yl]methyl}benzyl)-5-({[(4-methoxy-2,6-dimethylphenyl)sulfonyl](methyl)amino}methyl)-N-methylfuran-3-carboxamide] | 100 to 1000
COc1cc(C)c(S(=O)(=O)N(C)Cc2cc(C(=O)N(C)Cc3ccc(CN4CC(OC)C4)cc3)co2)c(C)c1 [Ex 133, N-{4-[(3-Methoxyazetidin-1-yl)methyl]benzyl}-5-({[(4-methoxy-2,6-dimethylphenyl)sulfonyl](methyl)amino}methyl)-N-methylfuran-3-carboxamide] | 100 to 1000
COc1cc(C)c(S(=O)(=O)N(C)Cc2cc(C(=O)N(C)Cc3ccc(CN4CCC(O)C4)cc3)co2)c(C)c1 (stereo not shown) [Ex 135, N-{4-[(3-Hydroxypyrrolidin-1-yl)methyl]benzyl}-5-({[(4-methoxy-2,6-dimethylphenyl)sulfonyl](methyl)amino}methyl)-N-methylfuran-3-carboxamide] | 10 to 100
COc1cc(C)c(S(=O)(=O)N(C)Cc2cc(C(=O)N(C)Cc3ccc(CN4CCC(N(C)C)C4)cc3)co2)c(C)c1 (stereo not shown) [Ex 136, N-(4-{[3-(Dimethylamino)pyrrolidin-1-yl]methyl}benzyl)-5-({[(4-methoxy-2,6-dimethylphenyl)sulfonyl](methyl)amino}methyl)-N-methylfuran-3-carboxamide] | 10 to 100
COc1cc(C)c(S(=O)(=O)N(C)Cc2cc(C(=O)N(C)Cc3nnc(CN4CCCC4)s3)co2)c(C)c1 [Ex 137, 5-({[(4-Methoxy-2,6-dimethylphenyl)sulfonyl](methyl)amino}methyl)-N-methyl-N-{[5-(pyrrolidin-1-ylmethyl)-1,3,4-thiadiazol-2-yl]methyl}furan-3-carboxamide] | 100 to 1000
COc1cc(C)c(S(=O)(=O)N(C)Cc2cc(C(=O)N(C)Cc3nc(CN4CCCC4)cs3)co2)c(C)c1 [Ex 138, 5-({[(4-Methoxy-2,6-dimethylphenyl)sulfonyl](methyl)amino}methyl)-N-methyl-N-{[4-(pyrrolidin-1-ylmethyl)-1,3-thiazol-2-yl]methyl}furan-3-carboxamide] | < 10
COc1cc(C)c(S(=O)(=O)N(Cc2cc(C(=O)N(C)Cc3ccc(CN4CCC(OC)CC4)cc3)co2)C2CC2)c(C)c1 [Ex 143, 5-({Cyclopropyl[(4-methoxy-2,6-dimethylphenyl)sulfonyl]amino}methyl)-N-{4-[(4-methoxypiperidin-1-yl)methyl]benzyl}-N-methylfuran-3-carboxamide] | 10 to 100
COc1cc(C)c(S(=O)(=O)N(Cc2cc(C(=O)N(C)Cc3ccc(CN4CC(OC)C4)cc3)co2)C2CC2)c(C)c1 [Ex 149, 5-({Cyclopropyl[(4-methoxy-2,6-dimethylphenyl)sulfonyl]amino}methyl)-N-{4-[(3-methoxyazetidin-1-yl)methyl]benzyl}-N-methylfuran-3-carboxamide] | 100 to 1000
CCN(Cc1ccc(CN2CCCC2)cc1)C(=O)c1coc(CN(C)S(=O)(=O)c2c(C)cc(OC)cc2C)c1 [Ex 150, N-Ethyl-5-({[(4-methoxy-2,6-dimethylphenyl)sulfonyl](methyl)amino}methyl)-N-[4-(pyrrolidin-1-ylmethyl)benzyl]furan-3-carboxamide trifluoroacetate] | 10 to 100
COc1cc(C)c(S(=O)(=O)N(C)Cc2cc(C(=O)NCc3cc(CN4CCCC4)ccc3F)co2)c(C)c1 [Ex 151, N-[2-Fluoro-5-(pyrrolidin-1-ylmethyl)benzyl]-5-({[(4-methoxy-2,6-dimethylphenyl)sulfonyl](methyl)amino}methyl)furan-3-carboxamide trifluoroacetate] | 100 to 1000
COc1cc(C)c(S(=O)(=O)N(C)Cc2cc(C(=O)NCc3ccc(CN4CCCC4)c(F)c3)co2)c(C)c1 [Ex 152, N-[3-Fluoro-4-(pyrrolidin-1-ylmethyl)benzyl]-5-({[(4-methoxy-2,6-dimethylphenyl)sulfonyl](methyl)amino}methyl)furan-3-carboxamide trifluoroacetate] | 100 to 1000

The next lines start with the values.

IC50 [nM] | SMILES
< 10 | COc1cc(C)c(S(=O)(=O)N(C)Cc2cc(C(=O)N(C)Cc3ccc(CN4CCCC(O)C4)cc3)co2)c(C)c1 (stereo not shown) [Ex 134, N-{4-[(3-Hydroxypiperidin-1-yl)methyl]benzyl}-5-({[(4-methoxy-2,6-dimethylphenyl)sulfonyl](methyl)amino}methyl)-N-methylfuran-3-carboxamide]
10 to 100 | COc1cc(C)c(S(=O)(=O)N(Cc2cc(C(=O)N(C)Cc3ccc(CN4CCC(O)CC4)cc3)co2)C2CC2)c(C)c1 [Ex 139, 5-({Cyclopropyl[(4-methoxy-2,6-dimethylphenyl)sulfonyl]amino}methyl)-N-{4-[(4-hydroxypiperidin-1-yl)methyl]benzyl}-N-methylfuran-3-carboxamide]
10 to 100 | COc1cc(C)c(S(=O)(=O)N(Cc2cc(C(=O)N(C)Cc3ccc(CN4CCC(N(C)C)C4)cc3)co2)C2CC2)c(C)c1 (stereo not shown) [Ex 140, 5-({Cyclopropyl[(4-methoxy-2,6-dimethylphenyl)sulfonyl]amino}methyl)-N-(4-{[3-(dimethylamino)pyrrolidin-1-yl]methyl}benzyl)-N-methylfuran-3-carboxamide]
10 to 100 | COc1cc(C)c(S(=O)(=O)N(Cc2cc(C(=O)N(C)Cc3ccc(CN4CCC(O)C4)cc3)co2)C2CC2)c(C)c1 (stereo not shown) [Ex 141, 5-({Cyclopropyl[(4-methoxy-2,6-dimethylphenyl)sulfonyl]amino}methyl)-N-{4-[(3-hydroxypyrrolidin-1-yl)methyl]benzyl}-N-methylfuran-3-carboxamide]
< 10 | COc1cc(C)c(S(=O)(=O)N(Cc2cc(C(=O)N(C)Cc3ccc(CN4CCCC(O)C4)cc3)co2)C2CC2)c(C)c1 (stereo not shown) [Ex 142, 5-({Cyclopropyl[(4-methoxy-2,6-dimethylphenyl)sulfonyl]amino}methyl)-N-{4-[(3-hydroxypiperidin-1-yl)methyl]benzyl}-N-methylfuran-3-carboxamide]
100 to 1000 | COc1cc(C)c(S(=O)(=O)N(Cc2cc(C(=O)N(C)Cc3ccc(CN4CCCC(OC)C4)cc3)co2)C2CC2)c(C)c1 (stereo not shown) [Ex 144, 5-({Cyclopropyl[(4-methoxy-2,6-dimethylphenyl)sulfonyl]amino}methyl)-N-{4-[(3-methoxypiperidin-1-yl)methyl]benzyl}-N-methylfuran-3-carboxamide]
10 to 100 | COc1cc(C)c(S(=O)(=O)N(Cc2cc(C(=O)N(C)Cc3ccc(CN4CCC(OC)C4)cc3)co2)C2CC2)c(C)c1 (stereo not shown) [Ex 145, 5-({Cyclopropyl[(4-methoxy-2,6-dimethylphenyl)sulfonyl]amino}methyl)-N-{4-[(3-methoxypyrrolidin-1-yl)methyl]benzyl}-N-methylfuran-3-carboxamide]
100 to 1000 | COc1cc(C)c(S(=O)(=O)N(Cc2cc(C(=O)N(C)Cc3ccc(CN4CCC(NC(C)=O)C4)cc3)co2)C2CC2)c(C)c1 (stereo not shown) [Ex 146, N-(4-{[3-(Acetylamino)pyrrolidin-1-yl]methyl}benzyl)-5-({cyclopropyl[(4-methoxy-2,6-dimethylphenyl)sulfonyl]amino}methyl)-N-methylfuran-3-carboxamide]
10 to 100 | COc1cc(C)c(S(=O)(=O)N(Cc2cc(C(=O)N(C)Cc3ccc(CN4CCC(C(=O)N(C)C)C4)cc3)co2)C2CC2)c(C)c1 (stereo not shown) [Ex 147, 1-(4-{[{[5-({Cyclopropyl[(4-methoxy-2,6-dimethylphenyl)sulfonyl]amino}methyl)furan-3-yl]carbonyl}(methyl)amino]methyl}benzyl)-N,N-dimethylpyrrolidine-3-carboxamide]
10 to 100 | COc1cc(C)c(S(=O)(=O)N(Cc2cc(C(=O)N(C)Cc3ccc(CN4CC(O)C4)cc3)co2)C2CC2)c(C)c1 [Ex 148, 5-({Cyclopropyl[(4-methoxy-2,6-dimethylphenyl)sulfonyl]amino}methyl)-N-{4-[(3-hydroxyazetidin-1-yl)methyl]benzyl}-N-methylfuran-3-carboxamide]
